According to patent US20110275573A1, “TISSUE ADHESIVE” (METAMOREFIX LTD., priority 2008, published 2011):
“Also recorded” adds a separate entry of the source.

Legend:
[1] = system: human foreskin fibroblasts (FF1); assay: Cell attachment assay in monolayers (peptide-coated Sepharose beads); format: cell-based
Experimental: (§1) A peptide solution in coupling buffer prepared as above was immediately added to the activated Sepharose beads Sepharose beads were used to fixate the peptides for all in-vitro assays in the column to a final binding of 6 mg peptide per ml gel. The column was closed and shaken overnight at 4° C. very gently to avoid mechanical breakage of the beads. The bottom cap of the column was removed and the solution of ligand/buffer was collected as the Sepharose Beads settled on the filter. The OD280 of the collected buffer was checked to determine the concentration of uncoupled peptide. The gel was washed/aspirated with 5 volumes (˜2 ml) of coupling buffer and gently mixed. Any remaining active groups on the gel were blocked with blocking buffer for 2 hours at room temperature or overnight at 4° C. The Sepharose beads gel with peptides was then washed by 2 cycles each of 5 gel volumes of: • a. 0.1 M Acetate buffer • b. Coupling buffer • c. Storing buffer: azide-coupling buffer: coupling buffer containing 0.1% NaN3 (final concentration)
(§2) The tested peptides (Table 1) were coupled to Sepharose Beads at two concentrations: 6 and 12 mg/ml Sepharose Beads. Sepharose Beads that underwent the coupling procedure without peptide addition (“naked Sepharose Beads”) served as a negative control (referred to herein as “Sepharose Beads-blank”). A cell binding assay was performed with 2 normal cell types: bovine aortal endothelial cells (BAEC) and human foreskin fibroblasts (FF1). Sepharose beads were added to 12 well culture plates with sub-confluent monolayer of the cultured cells (100-300 beads were added to each well). The fraction of Sepharose beads attached to the monolayer was determined at different times.

[2] = system: bovine aortal endothelial cells (BAEC); assay: as above; format: cell-based; details: for cell binding activity (BAEC), in words: 6 mg/ml
Experimental: as §1, §2

[3] = FIG. 3a, concentration not given

GGWTVFQRRMDGSVDFYRK [M-Fic-K]
cell binding activity (FF1), in words ([1]; 6 mg peptide/ml): dramatic change in activity

GGWTVFQRRVDGSVDFYRK [M-Fic]
cell binding activity (FF1), in words ([1]; 6 mg peptide/ml): initially inferior to the positive control; also recorded: retains its activity
cell binding activity (FF1), in words ([1]; 6 mg peptide/ml, listed as M-fic): retain most of its activity
time to reach saturated cell binding ([1]; 6 mg/ml, FF1): ≤ 24 h
Nomarsky optic microscopy of peptide coated beads attached to FF1 ([1]; after 3 days of incubation, x100, FIG. 10): aggregates of cells and beads formed
time to saturated attachment ([1]; conclusions, cell type and concentration not stated): 72 h
binding rate of BAEC at the lower concentration ([2]; 6 mg/ml compared with 12 mg/ml, FIG. 9): slight decrease
Nomarsky optic microscopy of peptide coated beads attached to endothelial cells (BAEC) ([2]; 3 weeks of incubation, x100, FIG. 12): formation of small tubes
activity in forming bead-cell aggregates and tube like structures ([2]; longer incubation times, FIGS. 10-12): highest activity

KGYKYSYKGGWTVFQRRMDGSVDFYR [C-M-Fic2]
cell binding of FF1 reached [1, 3]: 100%
kinetic profile of cell binding of FF1 [1, 3]: good kinetic profile of cell binding (fast attachment)

KGYKYSYKGGWTVFQRRMDGSVDFYRK [C-M-Fic2-K, C-M-Fic2 with the addition of a lysine group]
cell binding of FF1 reached [1, 3]: 100%
kinetic profile of cell binding of FF1 [1, 3]: good kinetic profile of cell binding (fast attachment)

KGYKYSYKVSEMKFQRRMDGSVDFYRK [C-M-Fic-a-K]
rate/kinetics of cell binding of FF1 compared with positive control PreC ([1]; 6 mg peptide/ml, FIG. 1, FIG. 2): accelerated the kinetics of cell binding

KGYKYSYKVSEMKVRPAK [C-Fic-a-K]
cell binding of FF1 reached ([1]; 6 mg peptide/ml, FIG. 1): 100%

KGYNYSYKSEMKVRPAK [C-Fic, b25 prints …]
cell binding activity (FF1), in words ([1]; 6 mg peptide/ml): no reactivity
cell binding activity (FF1), in words ([1]; 6 mg peptide/ml, listed as C-fic): did not attach; also recorded: looses its activity; also recorded: inactive
cell binding of FF1 reached ([1]; 12 mg peptide/ml, after 150 hours (FIG. 4b)): 100%
extent of cell binding ([2]; 6 mg peptide/ml, after 96 hours of incubation, cell type not stated (FF1 or BAEC)): about 30%
cell binding activity (BAEC), in words [2]: completely looses reactivity
cell binding activity (BAEC), in words ([2]; listed as C-fic): did not attach; also recorded: some activity

KTRWYSMKKTTMKIIPFNR [PreC, positive control peptide, reference compound]
cell binding of FF1 reached ([1]; 6 mg peptide/ml, FIG. 1): 100%
